Assay results as given in PubChem BioAssay (NCI).
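All cell lines were grown in 96-well plates and treated with compound for 48 hours. TGI: total growth inhibition.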

Key:
Experiment in all cases: NCI-60 cell line screen, 48 h
LOX IMVI melanoma = system: LOX IMVI melanoma
ACHN renal = system: ACHN renal
MALME-3M melanoma = system: MALME-3M melanoma
IGROV1 ovarian = system: IGROV1 ovarian
HOP-92 NSCLC = system: HOP-92 NSCLC
MDA-MB-231 breast = system: MDA-MB-231 breast
MCF7 breast = system: MCF7 breast
CAKI-1 renal = system: CAKI-1 renal
M14 melanoma = system: M14 melanoma
SNB-19 CNS = system: SNB-19 CNS
A498 renal = system: A498 renal
OVCAR-4 ovarian = system: OVCAR-4 ovarian
SK-MEL-2 melanoma = system: SK-MEL-2 melanoma
SNB-75 CNS = system: SNB-75 CNS
PC-3 prostate = system: PC-3 prostate
HCT-15 colon = system: HCT-15 colon
T-47D breast = system: T-47D breast
OVCAR-5 ovarian = system: OVCAR-5 ovarian
SW-620 colon = system: SW-620 colon
SK-OV-3 ovarian = system: SK-OV-3 ovarian
SF-268 CNS = system: SF-268 CNS
SK-MEL-5 melanoma = system: SK-MEL-5 melanoma
RPMI-8226 leukemia = system: RPMI-8226 leukemia
OVCAR-3 ovarian = system: OVCAR-3 ovarian
UACC-257 melanoma = system: UACC-257 melanoma
KM12 colon = system: KM12 colon
MDA-MB-435 = system: MDA-MB-435
UO-31 renal = system: UO-31 renal
HCC-2998 colon = system: HCC-2998 colon
NCI-H23 lung = system: NCI-H23 lung
BT-549 breast = system: BT-549 breast
OVCAR-8 ovarian = system: OVCAR-8 ovarian
CCRF-CEM leukemia = system: CCRF-CEM leukemia
SR leukemia = system: SR leukemia
NCI-H522 lung = system: NCI-H522 lung
NCI/ADR-RES ovarian = system: NCI/ADR-RES ovarian
MOLT-4 leukemia = system: MOLT-4 leukemia
K-562 leukemia = system: K-562 leukemia
MDA-N = system: MDA-N
COLO 205 colon = system: COLO 205 colon
A549 NSCLC = system: A549 NSCLC
SN12C renal = system: SN12C renal
NCI-H226 lung = system: NCI-H226 lung
DU-145 prostate = system: DU-145 prostate
TK-10 renal = system: TK-10 renal
EKVX NSCLC = system: EKVX NSCLC
NCI-H460 lung = system: NCI-H460 lung
HT29 colon = system: HT29 colon
RXF 393 renal = system: RXF 393 renal
HOP-62 NSCLC = system: HOP-62 NSCLC
HCT-116 colon = system: HCT-116 colon
SF-295 CNS = system: SF-295 CNS
U251 CNS = system: U251 CNS
786-0 renal = system: 786-0 renal
SK-MEL-28 melanoma = system: SK-MEL-28 melanoma
UACC-62 melanoma = system: UACC-62 melanoma
HS 578T breast = system: HS 578T breast
HL-60(TB) leukemia = system: HL-60(TB) leukemia
SF-539 CNS = system: SF-539 CNS

CC(C)(C)OC/C=C1\C(=O)O[C@H]2C[C@@H](O[Si](C)(C)C(C)(C)C)C[C@@H]12
TGI (LOX IMVI melanoma): > 100 µM | TGI (ACHN renal): > 100 µM | TGI (MALME-3M melanoma): > 100 µM | TGI (IGROV1 ovarian): > 100 µM | TGI (HOP-92 NSCLC): > 100 µM | TGI (MDA-MB-231 breast): > 100 µM | TGI (MCF7 breast): > 100 µM | TGI (CAKI-1 renal): > 100 µM | TGI (M14 melanoma): > 100 µM | TGI (SNB-19 CNS): > 100 µM | TGI (A498 renal): > 100 µM | TGI (OVCAR-4 ovarian): > 100 µM | TGI (SK-MEL-2 melanoma): > 100 µM | TGI (SNB-75 CNS): > 100 µM | TGI (PC-3 prostate): > 100 µM | TGI (HCT-15 colon): > 100 µM | TGI (T-47D breast): > 100 µM | TGI (OVCAR-5 ovarian): > 100 µM | TGI (SW-620 colon): > 100 µM | TGI (SK-OV-3 ovarian): > 100 µM | TGI (SF-268 CNS): > 100 µM | TGI (SK-MEL-5 melanoma): > 100 µM | TGI (RPMI-8226 leukemia): > 100 µM | TGI (OVCAR-3 ovarian): > 100 µM | TGI (UACC-257 melanoma): > 100 µM | TGI (KM12 colon): > 100 µM | TGI (MDA-MB-435): > 100 µM | TGI (UO-31 renal): > 100 µM | TGI (HCC-2998 colon): > 100 µM | TGI (NCI-H23 lung): > 100 µM | TGI (BT-549 breast): > 100 µM | TGI (OVCAR-8 ovarian): > 100 µM | TGI (CCRF-CEM leukemia): > 100 µM | TGI (SR leukemia): > 100 µM | TGI (NCI-H522 lung): 90.7 µM | TGI (NCI/ADR-RES ovarian): > 100 µM | TGI (MOLT-4 leukemia): > 100 µM | TGI (K-562 leukemia): > 100 µM | TGI (MDA-N): > 100 µM | TGI (COLO 205 colon): > 100 µM | TGI (A549 NSCLC): > 100 µM | TGI (SN12C renal): > 100 µM | TGI (NCI-H226 lung): > 100 µM | TGI (DU-145 prostate): > 100 µM | TGI (TK-10 renal): > 100 µM | TGI (EKVX NSCLC): > 100 µM | TGI (NCI-H460 lung): > 100 µM | TGI (HT29 colon): > 100 µM | TGI (RXF 393 renal): > 100 µM | TGI (HOP-62 NSCLC): > 100 µM | TGI (HCT-116 colon): > 100 µM | TGI (SF-295 CNS): > 100 µM | TGI (U251 CNS): > 100 µM | TGI (786-0 renal): > 100 µM | TGI (SK-MEL-28 melanoma): > 100 µM

O=C(O)CNn1c(SCC(=O)O)nnc(/C=C/c2c(O)ccc3ccccc23)c1=O
TGI (LOX IMVI melanoma): 31.8 µM | TGI (ACHN renal): > 100 µM | TGI (MALME-3M melanoma): > 100 µM | TGI (IGROV1 ovarian): 0.962 µM | TGI (MCF7 breast): > 100 µM | TGI (CAKI-1 renal): > 100 µM | TGI (M14 melanoma): 43.5 µM | TGI (SNB-19 CNS): > 100 µM | TGI (A498 renal): > 100 µM | TGI (OVCAR-4 ovarian): > 100 µM | TGI (SK-MEL-2 melanoma): > 100 µM | TGI (PC-3 prostate): > 100 µM | TGI (HCT-15 colon): > 100 µM | TGI (T-47D breast): > 100 µM | TGI (OVCAR-5 ovarian): > 100 µM | TGI (SW-620 colon): > 100 µM | TGI (SK-OV-3 ovarian): > 100 µM | TGI (SF-268 CNS): 97.3 µM | TGI (SK-MEL-5 melanoma): 42.8 µM | TGI (UACC-62 melanoma): 74.4 µM | TGI (RPMI-8226 leukemia): > 100 µM | TGI (OVCAR-3 ovarian): > 100 µM | TGI (UACC-257 melanoma): > 100 µM | TGI (KM12 colon): > 100 µM | TGI (MDA-MB-435): > 100 µM | TGI (UO-31 renal): > 100 µM | TGI (HS 578T breast): 94.4 µM | TGI (HCC-2998 colon): > 100 µM | TGI (HL-60(TB) leukemia): 25.9 µM | TGI (NCI-H23 lung): 52.6 µM | TGI (BT-549 breast): 63.8 µM | TGI (OVCAR-8 ovarian): 28.6 µM | TGI (CCRF-CEM leukemia): 14.9 µM | TGI (SR leukemia): 60 µM | TGI (NCI-H522 lung): > 100 µM | TGI (SF-539 CNS): > 100 µM | TGI (NCI/ADR-RES ovarian): 67.9 µM | TGI (K-562 leukemia): 62.7 µM | TGI (MDA-N): > 100 µM | TGI (COLO 205 colon): > 100 µM | TGI (A549 NSCLC): > 100 µM | TGI (SN12C renal): > 100 µM | TGI (DU-145 prostate): > 100 µM | TGI (EKVX NSCLC): 66.2 µM | TGI (NCI-H460 lung): > 100 µM | TGI (HT29 colon): > 100 µM | TGI (HOP-62 NSCLC): > 100 µM | TGI (HCT-116 colon): > 100 µM | TGI (SF-295 CNS): > 100 µM | TGI (U251 CNS): > 100 µM | TGI (786-0 renal): > 100 µM | TGI (SK-MEL-28 melanoma): > 100 µM
